Experimental data taken from patent US11452303B2, “Methods for feeding sows and for improving the health of young piglets” (PURINA ANIMAL NUTRITION LLC, priority 2003, dated 2022).
Several values for one entry are separate records, joined by “and”; a condition that tells them apart may be missing. Equal values may be shown once. Marks after values point to notes of the source that are not given here.

Tests used:
nursing piglets = test: Litter performance: number of nursing piglets and piglet mortality in litters of lactating sows fed sorbitol; assay type: in vivo, swine
Method: (§1) In this example, sixty-two (62) lactating sows were subjected to one of three different feeding trials that each began shortly (within 48 hours) after the lactating sows gave birth to piglets (i.e.: shortly after farrowing) and extended to the day the different piglets were wearied from the respective sows. The purpose of this example was to evaluate the effect of feeding lactating sows varying amounts of sugar alcohol, or no sugar alcohol, on subsequent piglet litter performance parameters, such as mortality prior to weaning and litter weight gain during the pre-weaning period. Sorbitol was used as the sugar alcohol in this example.
Immediately after farrowing, twenty sows were randomly assigned to the Control, twenty-one sows were randomly assigned to Trial A, and twenty-one sows were randomly assigned to Trial B. Sow assignment did take into account parity (number of litters per sow) to artificially balance parity across the Control, Trial A, and Trial B. The different sows of the Control, Trial A, and Trial B had parities ranging from one to more than two. Additionally, litter size was equalized between the different sows of the Control, Trial A, and Trial B within forty-eight hours after farrowing to assure that all sows, whether assigned to the Control, Trial A or Trial B, had the same, or about the same, number of nursing piglets. The reason for waiting forty-eight hours before cross-fostering in this fashion was to assure each piglet received colostrum from their original dam.
(§2) In Trial A, each of the lactating sows received the control feed plus about twenty-six grams of sorbitol per day. In Trial B, each of the lactating sows received the control feed plus about fifty-two grams of sorbitol per day.
The lactating sows of both Trial A and Trial B received the same daily amount of control feed that was fed to the lactating sows of the Control with the exception that two pounds of the control feed provided daily to the lactating sows of both Trial A and Trial B were replaced with two pounds of a sorbitol-coated control feed (hereinafter referred to as “top-dressed control feed”). To create the top-dressed control feed, liquid sorbitol was heated to a temperature ranging from about 100° F. and about 120° F. The heated liquid sorbitol was then sprayed over a batch of about three hundred to four hundred pounds of the control feed and thoroughly mixed to form the top-dressed control feed. Following mixing, the top-dressed control feed was divided and separately bagged in two pound increments. An appropriate ratio of the liquid sorbitol to the control feed was selected for the top-dressed control feed destined for the Trial A lactating sows to assure that each two pound allotment of the control feed destined for the Trial A lactating sows included about twenty-six grams of sorbitol. Likewise, an appropriate ratio of the liquid sorbitol to the control feed was selected for the top-dressed control feed destined for the Trial B lactating sows to assure that each two pound allotment of the top-dressed control feed destined for the Trial B lactating sows included about fifty-two grams of sorbitol.
During the feeding trial of this example, the top dressed control feed was applied three times daily to the balance of the control feed being provided individually at that feeding to the individual lactating sows of Trial A and Trial B. Approximately one-third of the top-dressed control feed was provided to the sows in the morning feeding, approximately one-third of the top dressed control feed was provided to the lactating sows in the noon feeding, and the remaining approximate one-third of the top-dressed control feed was provided to the sows in the afternoon feeding. The twenty-one sows of Trial A each received a total of about two pounds of the top-dressed control feed containing about 26 grams of sorbitol per day. […]

[1] = Litter performance: total litter live weight and mean individual piglet weight; assay type: in vivo, swine
Method: In each of the Examples provided below, each piglet was weighed two days after birth, fourteen days after birth, and again at weaning. All data that is provided in Tables 4-9 below for the lactating sows is based upon individual data for each lactating sow, then-present, as least square means of the particular data over all lactating sows present in the test at the time the particular data was recorded. All data that is provided in Tables 4-9 below for the piglets is based upon data for each litter of piglets, then-present, as least square means of the particular data over all piglets of the litter present in the test at the time the particular data was recorded. Data for parameters presented in Tables 4-9 was analyzed using the general linear model (GLM) statistical procedure of SAS™ statistical analysis software for a randomized complete block design that included both the particular Iced regimen and the week of the test period in the model statement. The SAS™ statistical analysis software is available from SAS Institute, Inc. of Cary, N.C. Additionally, all data was analyzed to determine the mean of the data for each variable under consideration during the collection period for the particular data.
as §1, §2
Additionally, the collective body weights of the piglets assigned to each lactating sow of the three different trials were measured and recorded on day two post-farrowing (about forty-eight hours after farrowing), on day fourteen post-farrowing (fourteen days after farrowing), and on the day the piglets were weaned. The mean body weight values for each individual piglet of the three different trials were derived for each piglet individually from the weight data recorded for each piglet litter by dividing the collective litter weight determined for a particular litter by the total number of piglets then-present in the litter to attain the mean individual piglet weights on day two post-farrowing (about forty-eight hours after farrowing), on day fourteen post-farrowing (fourteen days after farrowing), and on the day the piglets were weaned.
In this example, the data from Example 1 was analyzed to remove data attributable to sows with a parity of only one. Parity refers to the number of litters a sow has previously given birth to during its life. Gilts or first-parity sows typically consume approximately fifteen to twenty percent less feed during lactation and also typically produce less milk than sows with parities greater than one. The litters of parity one sows also tend to have lower weaning weights and more health problems than the litters of sows with parities greater than one. The purpose of looking at the Example 1 data, as re-analyzed to remove the effect of parity one data, is to determine the influence of natural differences in feed intake and litter performance of parity one sows on the data presented in Example 1 above. Removing the data contributed by the […] parity one sows in Example 1, left the Control with fourteen sows of parity two or higher, left Trial A with sixteen sows of parity two or higher, and left Trial B with sixteen sows of parity two or higher. […]

[2] = Trial A, 26 grams sorbitol per day, Parity ≥ 1, At Weaning
[3] = Trial A, 26 grams sorbitol per day, Parity ≥ 1, Day 14
[4] = Trial A, 26 grams sorbitol per day, Parity ≥ 1, day one post-farrowing to weaning
[5] = Trial A, 26 grams sorbitol per day, Parity ≥ 1, day one to day fourteen post-farrowing
[6] = Trial A, 26 grams sorbitol per day, Parity ≥2, At Weaning
[7] = Trial A, 26 grams sorbitol per day, Parity ≥2, Day 2
[8] = Trial A, 26 grams sorbitol per day, Parity ≥2, Day 14
[9] = Trial A, 26 grams sorbitol per day, Parity ≥ 2, day one post-farrowing to weaning
[10] = Trial A, 26 grams sorbitol per day, Parity ≥ 2, day one to day fourteen post-farrowing
[11] = Trial B, 52 grams sorbitol per day, Parity ≥ 1, At Weaning
[12] = Trial B, 52 grams sorbitol per day, Parity ≥ 1, Day 14
[13] = Trial B, 52 grams sorbitol per day, Parity ≥ 1, day fourteen post-farrowing to weaning
[14] = Trial B, 52 grams sorbitol per day, Parity ≥ 1, day one post-farrowing to weaning
[15] = Trial B, 52 grams sorbitol per day, Parity ≥ 1, day one to day fourteen post-farrowing
[16] = Trial B, 52 grams sorbitol per day, Parity ≥2, At Weaning
[17] = Trial B, 52 grams sorbitol per day, Parity ≥2, Day 2
[18] = Trial B, 52 grams sorbitol per day, Parity ≥2, Day 14
[19] = Trial B, 52 grams sorbitol per day, Parity ≥ 2, day one post-farrowing to weaning
[20] = Trial B, 52 grams sorbitol per day, Parity ≥ 2, day one to day fourteen post-farrowing
[21] = Trial A, 26 grams sorbitol per day, Parity ≥ 1, Day 2
[22] = Trial B, 52 grams sorbitol per day, Parity ≥ 1, Day 2

With `OC[C@@H](O)[C@@H](O)[C@H](O)[C@@H](O)CO` [sorbitol] the “Number of Nursing Piglets” value (nursing piglets; Trial A, 26 grams sorbitol per day to sows, Parity ≥ 1, Day 2) was 10.57, the “Number of Nursing Piglets” value (nursing piglets; [2]) was 9.95 and the “Percentage Piglet Mortality” value (nursing piglets; Trial A, 26 grams sorbitol per day, Parity ≥ 1, Day 1 to Day 14) was 3.99% and 3.99^c percent. For the same compound, the “Percentage Piglet Mortality” value (nursing piglets; Trial A, 26 grams sorbitol per day, Parity ≥ 1, Day 1 to Weaning) was 5.69% and 5.69^c percent, the “Number of Nursing Piglets” value (nursing piglets; [3]) was 10.14 and the “Percentage Piglet Mortality” value (nursing piglets; Trial A, 26 grams sorbitol per day, Parity ≥ 1, Day 14 to weaning) was 1.74^d percent. For the same compound, the “piglet mortality drop versus Control” value (nursing piglets; [4]) was 47.07%, the “piglet mortality percentage drop versus Control” value (nursing piglets; [4]) was 5.06 percentage points and the “piglet mortality drop versus Control” value (nursing piglets; [5]) was 54.97%. For the same compound, the “piglet mortality percentage drop versus Control” value (nursing piglets; [5]) was 4.87 percentage points, the “Number of Nursing Piglets” value (nursing piglets; [6]) was 10.01 and the “Percentage Piglet Mortality” value (nursing piglets; Trial A, 26 grams sorbitol per day, Parity ≥2, Day 1 to Day 14) was 3.52% and 3.52^c percent. For the same compound, the “Percentage Piglet Mortality” value (nursing piglets; Trial A, 26 grams sorbitol per day, Parity ≥2, Day 1 to Weaning) was 4.69% and 4.69^c percent, the “Number of Nursing Piglets” value (nursing piglets; [7]) was 10.51 and the “Number of Nursing Piglets” value (nursing piglets; [8]) was 10.14. For the same compound, the “Percentage Piglet Mortality” value (nursing piglets; Trial A, 26 grams sorbitol per day, Parity ≥2, Day 14 to weaning) was 1.23%, the “piglet mortality drop versus Control” value (nursing piglets; [9]) was 63.27% and the “piglet mortality percentage drop versus Control” value (nursing piglets; [9]) was 8.08 percentage points. For the same compound, the “piglet mortality drop versus Control” value (nursing piglets; [10]) was 67.20%, the “piglet mortality percentage drop versus Control” value (nursing piglets; [10]) was 7.21 percentage points and the “Number of Nursing Piglets” value (nursing piglets; Trial B, 52 grams sorbitol per day to sows, Parity ≥ 1, Day 2) was 10.50. For the same compound, the “Number of Nursing Piglets” value (nursing piglets; [11]) was 10.03, the “Percentage Piglet Mortality” value (nursing piglets; Trial B, 52 grams sorbitol per day, Parity ≥ 1, Day 1 to Day 14) was 4.61% and 4.61^e percent and the “Percentage Piglet Mortality” value (nursing piglets; Trial B, 52 grams sorbitol per day, Parity ≥ 1, Day 1 to Weaning) was 4.60% and 4.60^c percent. The “Number of Nursing Piglets” value (nursing piglets; [12]) was 10.0, the “Percentage Piglet Mortality” value (nursing piglets; Trial B, 52 grams sorbitol per day, Parity ≥ 1, Day 14 to weaning) was 0.00% and 0.00^e percent and the “piglet mortality drop versus Control” value (nursing piglets; [13]) was 100%. For the same compound, the “piglet mortality percentage drop versus Control” value (nursing piglets; [13]) was 2.09 percentage points, the “piglet mortality drop versus Control” value (nursing piglets; [14]) was 57.21% and the “piglet mortality percentage drop versus Control” value (nursing piglets; [14]) was 6.15 percentage points. The “piglet mortality drop versus Control” value (nursing piglets; [15]) was 47.97%, the “piglet mortality percentage drop versus Control” value (nursing piglets; [15]) was 4.25 percentage points and the “Number of Nursing Piglets” value (nursing piglets; [16]) was 10.02. For the same compound, the “Percentage Piglet Mortality” value (nursing piglets; Trial B, 52 grams sorbitol per day, Parity ≥2, Day 1 to Day 14) was 5.68% and 5.68^c percent, the “Percentage Piglet Mortality” value (nursing piglets; Trial B, 52 grams sorbitol per day, Parity ≥2, Day 1 to Weaning) was 5.71% and 5.71^c percent and the “Number of Nursing Piglets” value (nursing piglets; [17]) was 10.62. The “Number of Nursing Piglets” value (nursing piglets; [18]) was 10.02, the “Percentage Piglet Mortality” value (nursing piglets; Trial B, 52 grams sorbitol per day, Parity ≥2, Day 14 to weaning) was 0.00% and the “piglet mortality drop versus Control” value (nursing piglets; [19]) was 55.29%. The “piglet mortality percentage drop versus Control” value (nursing piglets; [19]) was 7.06 percentage points, the “piglet mortality drop versus Control” value (nursing piglets; [20]) was 47.06% and the “piglet mortality percentage drop versus Control” value (nursing piglets; [20]) was 5.05 percentage points. The “Mean Weight of Individual Piglets” value [1, 2] was 14.80 pounds, the “Total Live Weight of Litter” value [1, 2] was 147.53^de pounds and the “Mean Weight of Individual Piglets” value [1, 21] was 4.11 pounds. The “Total Live Weight of Litter” value [1, 21] was 43.29 pounds, the “Mean Weight of Individual Piglets” value [1, 3] was 10.59 pounds and the “Total Live Weight of Litter” value [1, 3] was 107.85 pounds. For the same compound, the “Mean Weight of Individual Piglets” value [1, 6] was 15.02 pounds, the “Total Live Weight of Litter” value [1, 6] was 150.42^bc pounds and the “Mean Weight of Individual Piglets” value [1, 7] was 4.14 pounds. For the same compound, the “Total Live Weight of Litter” value [1, 7] was 43.37 pounds, the “Mean Weight of Individual Piglets” value [1, 8] was 10.82 pounds and the “Total Live Weight of Litter” value [1, 8] was 109.76 pounds. The “Mean Weight of Individual Piglets” value [1, 11] was 15.55 pounds, the “Total Live Weight of Litter” value [1, 11] was 154.81 pounds and 154.81^e pounds and the “Mean Weight of Individual Piglets” value [1, 22] was 3.90 pounds. The “Total Live Weight of Litter” value [1, 22] was 41.17 pounds, the “Mean Weight of Individual Piglets” value [1, 12] was 10.39 pounds and the “Total Live Weight of Litter” value [1, 12] was 104.39 pounds. For the same compound, the “Mean Weight of Individual Piglets” value [1, 16] was 16.03 pounds, the “Total Live Weight of Litter” value [1, 16] was 159.86 pounds and 159.86^c pounds and the “Mean Weight of Individual Piglets” value [1, 17] was 4.18 pounds. The “Total Live Weight of Litter” value [1, 17] was 44.48 pounds, the “Mean Weight of Individual Piglets” value [1, 18] was 10.87 pounds and the “Total Live Weight of Litter” value [1, 18] was 109.25 pounds.
